# Measurements published in patent US6939850B2, “Altered human interleukin-1β convertase (ICE), NEDD-2, and C. elegans ced-3 polypeptides and uses therefor” (Massachusetts Institute of Technology, priority 1992, dated 2005).
# Tests used:
# ICE = biological target: T1, ICE (Homo sapiens, UniProt P29466); details: protease activity of ICE; cited from earlier work
# T1 sequence (P29466 120-297): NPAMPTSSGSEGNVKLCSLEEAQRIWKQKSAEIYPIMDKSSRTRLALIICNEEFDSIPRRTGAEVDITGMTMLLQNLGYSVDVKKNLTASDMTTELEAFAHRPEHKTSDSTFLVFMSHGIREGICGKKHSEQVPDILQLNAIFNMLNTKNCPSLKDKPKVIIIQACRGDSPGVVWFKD
# T1 sequence (P29466 317-404): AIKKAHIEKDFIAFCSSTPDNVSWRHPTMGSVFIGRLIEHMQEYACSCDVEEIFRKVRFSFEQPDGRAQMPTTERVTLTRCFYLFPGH
# chick spinal motoneurons = assay: Motoneuron culture deprived of muscle extract, survival; assay type: cell-based; details: without muscle extract, treated between 14 and 24 hours, counted after 3 days
# Excerpt: A tissue culture model system that allows isolation of a relatively pure population of motoneurons whose survival is dependent on muscle extract, a potent source of target-derived trophic support, was used to test the ability of peptide inhibitors of ICE to block motoneuron cell death (Milligan et al., J Neurobiology 25:1005-1016 (1994) and Block-Gallego et al., Development. 111:221-232 (1991)). The death of motoneurons deprived of trophic support in vitro requires new gene expression and occurs by apoptosis (Milligan et al., J. Neurobiology 25:1005-1016 (1994)). Motoneurons deprived of trophic support at the time of plating become irreversibly committed to undergo cell death after 16-18 hours (Milligan et al., J. Neurobiology 25:1005-1016 (1994)). […] When motoneurons are treated with peptide inhibitors in the absence of muscle extract for three days and subsequently supplemented on day three with muscle extract, they continue to survive, and by six days appear as healthy and differentiated as the motoneurons that were continuously supplied with muscle extract (FIGS. 12A, 12B, 15G). Thus, motoneurons rescued for 3 days by ICE inhibitors remain capable of responding to trophic factors present in muscle extract.
# Methods for motoneuron cultures. […]
substance,measurement,setting,value
Acetyl-Tyr-Val-Ala-Asp-aldehyde [Ac-YVAD-CHO],Ki,ICE,0.76 nM
same,motoneuron death,chick spinal motoneurons,inhibitory effects on motoneuron death
